The target of one experiment is PP6 holoenzyme (Homo sapiens, UniProt O00743). The note with it: 100 uM DiFMUP; pH 7.4, 30 C; Mg2+ from enzyme buffer.
The target of another experiment is PP4 holoenzyme (Homo sapiens, UniProt P60510). The settings on record: 100 uM DiFMUP; pH 7.4, 30 C; Mg2+ from enzyme buffer.
PP4 holoenzyme, sequence (P60510 2-307): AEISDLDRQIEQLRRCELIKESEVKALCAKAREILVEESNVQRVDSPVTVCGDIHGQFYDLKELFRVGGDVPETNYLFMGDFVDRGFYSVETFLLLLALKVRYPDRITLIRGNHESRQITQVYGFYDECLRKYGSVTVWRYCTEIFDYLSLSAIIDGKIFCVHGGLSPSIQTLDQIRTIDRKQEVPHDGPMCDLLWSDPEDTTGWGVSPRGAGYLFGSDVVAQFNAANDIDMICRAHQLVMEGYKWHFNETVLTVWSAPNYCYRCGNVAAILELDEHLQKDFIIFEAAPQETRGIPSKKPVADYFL
PP4 holoenzyme, sequence (Q9NY27 whole entry partner): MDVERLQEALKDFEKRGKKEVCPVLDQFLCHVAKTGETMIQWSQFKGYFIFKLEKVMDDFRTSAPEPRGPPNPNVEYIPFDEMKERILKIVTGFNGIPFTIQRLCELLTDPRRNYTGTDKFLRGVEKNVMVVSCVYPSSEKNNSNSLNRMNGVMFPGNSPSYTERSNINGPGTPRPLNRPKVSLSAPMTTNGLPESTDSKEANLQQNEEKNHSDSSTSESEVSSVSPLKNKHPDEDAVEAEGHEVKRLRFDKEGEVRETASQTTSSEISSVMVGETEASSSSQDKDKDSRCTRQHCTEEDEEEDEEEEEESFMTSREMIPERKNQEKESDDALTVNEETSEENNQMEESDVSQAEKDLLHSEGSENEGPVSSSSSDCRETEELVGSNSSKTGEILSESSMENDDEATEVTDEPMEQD
PP4 holoenzyme, sequence (Q6IN85 whole entry partner): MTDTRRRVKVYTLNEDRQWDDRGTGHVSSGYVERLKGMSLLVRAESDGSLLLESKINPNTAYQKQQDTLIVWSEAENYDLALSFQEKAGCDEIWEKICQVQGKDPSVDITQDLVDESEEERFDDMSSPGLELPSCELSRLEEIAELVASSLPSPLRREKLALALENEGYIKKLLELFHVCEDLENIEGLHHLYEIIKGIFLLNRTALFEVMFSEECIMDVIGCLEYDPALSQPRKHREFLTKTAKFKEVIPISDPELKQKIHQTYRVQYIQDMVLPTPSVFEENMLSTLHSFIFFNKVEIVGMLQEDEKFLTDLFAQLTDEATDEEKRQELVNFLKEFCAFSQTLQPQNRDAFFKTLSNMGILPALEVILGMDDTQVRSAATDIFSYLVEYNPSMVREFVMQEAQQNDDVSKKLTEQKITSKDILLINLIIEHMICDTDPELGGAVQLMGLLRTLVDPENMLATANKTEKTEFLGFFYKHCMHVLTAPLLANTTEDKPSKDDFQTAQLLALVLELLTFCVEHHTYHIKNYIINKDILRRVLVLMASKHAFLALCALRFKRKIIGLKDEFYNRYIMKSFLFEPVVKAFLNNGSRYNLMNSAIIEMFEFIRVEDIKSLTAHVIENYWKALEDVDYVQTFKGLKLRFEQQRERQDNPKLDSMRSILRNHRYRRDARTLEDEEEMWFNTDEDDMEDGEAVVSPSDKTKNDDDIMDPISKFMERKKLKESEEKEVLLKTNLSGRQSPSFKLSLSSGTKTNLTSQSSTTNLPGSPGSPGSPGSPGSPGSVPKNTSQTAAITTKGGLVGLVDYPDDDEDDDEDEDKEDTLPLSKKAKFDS

PP6 holoenzyme, sequence (O00743 whole entry): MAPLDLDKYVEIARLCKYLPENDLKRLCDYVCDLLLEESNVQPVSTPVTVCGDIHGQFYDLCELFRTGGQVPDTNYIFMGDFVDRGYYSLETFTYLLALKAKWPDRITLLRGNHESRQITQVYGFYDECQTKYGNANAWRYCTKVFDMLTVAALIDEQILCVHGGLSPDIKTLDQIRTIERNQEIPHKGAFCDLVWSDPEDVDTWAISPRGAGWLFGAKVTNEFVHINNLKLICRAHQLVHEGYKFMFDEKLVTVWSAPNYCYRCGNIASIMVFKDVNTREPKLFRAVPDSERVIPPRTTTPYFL
PP6 holoenzyme, sequence (Q9UPN7 whole entry partner): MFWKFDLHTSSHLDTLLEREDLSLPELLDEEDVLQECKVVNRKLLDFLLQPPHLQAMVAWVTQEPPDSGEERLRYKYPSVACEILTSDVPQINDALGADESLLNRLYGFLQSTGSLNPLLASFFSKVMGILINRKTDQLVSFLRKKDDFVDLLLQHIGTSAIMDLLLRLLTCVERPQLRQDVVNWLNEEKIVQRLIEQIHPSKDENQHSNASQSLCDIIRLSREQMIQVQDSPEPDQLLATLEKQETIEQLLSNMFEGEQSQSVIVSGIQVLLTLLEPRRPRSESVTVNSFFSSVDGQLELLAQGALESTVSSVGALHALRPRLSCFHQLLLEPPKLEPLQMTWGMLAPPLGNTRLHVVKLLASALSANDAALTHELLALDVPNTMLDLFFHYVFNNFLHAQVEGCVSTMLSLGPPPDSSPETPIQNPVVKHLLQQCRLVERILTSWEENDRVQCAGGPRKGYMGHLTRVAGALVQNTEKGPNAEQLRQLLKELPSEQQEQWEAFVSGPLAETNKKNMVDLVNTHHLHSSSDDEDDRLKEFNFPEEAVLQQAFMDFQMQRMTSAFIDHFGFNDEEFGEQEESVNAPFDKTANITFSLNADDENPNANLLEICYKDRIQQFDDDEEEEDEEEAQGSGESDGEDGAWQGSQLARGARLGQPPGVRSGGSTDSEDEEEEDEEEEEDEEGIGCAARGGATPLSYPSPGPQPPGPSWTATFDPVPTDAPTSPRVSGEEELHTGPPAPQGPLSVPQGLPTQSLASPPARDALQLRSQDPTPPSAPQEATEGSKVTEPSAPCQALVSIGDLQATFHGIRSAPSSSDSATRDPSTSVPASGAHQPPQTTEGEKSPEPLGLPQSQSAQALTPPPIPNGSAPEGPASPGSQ
PP6 holoenzyme, sequence (O15084 whole entry partner): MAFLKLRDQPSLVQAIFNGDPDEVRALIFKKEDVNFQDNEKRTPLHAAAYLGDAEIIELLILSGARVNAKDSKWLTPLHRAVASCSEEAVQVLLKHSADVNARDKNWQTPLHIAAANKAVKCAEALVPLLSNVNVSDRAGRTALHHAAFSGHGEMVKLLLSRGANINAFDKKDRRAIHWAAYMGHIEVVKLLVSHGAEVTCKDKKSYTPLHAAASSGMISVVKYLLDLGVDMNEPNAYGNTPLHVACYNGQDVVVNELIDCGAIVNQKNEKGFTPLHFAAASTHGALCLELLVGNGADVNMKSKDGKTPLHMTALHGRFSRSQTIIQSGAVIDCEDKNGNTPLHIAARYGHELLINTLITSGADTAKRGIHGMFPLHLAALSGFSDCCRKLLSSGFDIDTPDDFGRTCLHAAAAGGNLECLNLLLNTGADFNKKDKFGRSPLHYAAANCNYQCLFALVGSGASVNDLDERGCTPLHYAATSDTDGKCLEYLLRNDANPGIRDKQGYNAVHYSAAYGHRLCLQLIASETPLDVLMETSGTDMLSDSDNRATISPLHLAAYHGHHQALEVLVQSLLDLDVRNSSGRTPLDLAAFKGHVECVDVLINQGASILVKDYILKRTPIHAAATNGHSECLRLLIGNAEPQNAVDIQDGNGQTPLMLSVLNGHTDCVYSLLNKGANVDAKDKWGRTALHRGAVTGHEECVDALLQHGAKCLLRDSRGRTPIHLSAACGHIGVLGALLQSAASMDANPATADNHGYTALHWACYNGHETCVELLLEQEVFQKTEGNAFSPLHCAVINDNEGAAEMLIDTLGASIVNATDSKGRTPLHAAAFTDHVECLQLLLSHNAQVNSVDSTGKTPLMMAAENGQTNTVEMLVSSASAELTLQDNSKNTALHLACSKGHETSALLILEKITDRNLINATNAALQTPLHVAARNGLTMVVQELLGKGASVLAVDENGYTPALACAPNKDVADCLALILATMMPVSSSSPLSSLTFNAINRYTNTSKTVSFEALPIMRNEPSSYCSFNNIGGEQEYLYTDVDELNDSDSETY

Consider `Cc1cc(=O)oc2c(F)c(OP(=O)(O)O)c(F)cc12` [DiFMUP], for which the fluorescence dephosphorylation assay result at PP6 holoenzyme is “DiFMUP dephosphorylation assay measuring the activity of purified PP6 holoenzyme”; at PP4 holoenzyme it was “mixing purified PP4 and PP6 holoenzymes”.

(Values after publication PMC11844454 (bioRxiv, 2025).)
